Assay results published in patent US20170190726A9, “PRODRUG FOR RELEASE OF CISPLATIN AND CYCLOOXYGENASE INHIBITOR” (priority 2013, published 2017).

Key:
TNF-α = assay: ELISA of TNF-α in LPS-stimulated RAW 264.7 macrophages; format: cell-based, mouse
Description: (§5) RAW 264.7 cells were plated at a concentration of 10,000 cells/mL in 96 plates and allowed to grow overnight. For preventative anti-inflammatory treatment, Platin-A (10 μM), aspirin (10 μM), cisplatin (10 μM) and an equimolar ratio of cisplatin and aspirin (10 μM each) was incubated with the RAW cells for 6 h. Lipopolysaccharide (LPS) (100 ng/mL) was added and the cells were further incubated for 12 h. For therapeutic anti-inflammatory treatment, LPS (100 ng/mL) was added to the RAW cells and incubated for 6 h. Platin-A (10 μM), aspirin (10 μM), cisplatin (10 μM) and an equimolar ratio of cisplatin and aspirin (10 μM each) was then added to the cells and incubated for 12 h. ELISA was performed on the supernatants against the cytokines interleukin (IL)-6, IL-10, and TNF-α. Briefly, antibody coated plates were blocked with 10% FBS in PBS for 1 h at room temperature followed by 3 washes. RAW cell supernatants were incubated on the plates for 2 h at room temperature. This was immediately followed by washings and sequential incubations with the cytokine-biotin conjugate and streptavidin working solution. Finally, the substrate reagent containing 3,3′,5,5′-tetramethylbenzidine (100 μL) was added to each well, incubated for 15 min, the reaction was stopped by adding 50 μL H2SO4 (0.1 M). The absorbance was recorded at 450 nm using a BioTek Synergy HT well plate reader.

IL-6 = assay: ELISA of IL-6 in LPS-stimulated RAW 264.7 macrophages; format: cell-based, mouse
Description: as §5

ovine COX-2 = target: T1, ovine COX-2 (Ovis aries, UniProt P79208); assay: In vitro COX inhibition assay (EIA), COX-2; format: biochemical; conditions: ovine COX-2, EIA, 0.75-2 mM, aspirin as positive control
T1 construct: purchased Cayman Chemicals 560101
T1 sequence (P79208 17-603): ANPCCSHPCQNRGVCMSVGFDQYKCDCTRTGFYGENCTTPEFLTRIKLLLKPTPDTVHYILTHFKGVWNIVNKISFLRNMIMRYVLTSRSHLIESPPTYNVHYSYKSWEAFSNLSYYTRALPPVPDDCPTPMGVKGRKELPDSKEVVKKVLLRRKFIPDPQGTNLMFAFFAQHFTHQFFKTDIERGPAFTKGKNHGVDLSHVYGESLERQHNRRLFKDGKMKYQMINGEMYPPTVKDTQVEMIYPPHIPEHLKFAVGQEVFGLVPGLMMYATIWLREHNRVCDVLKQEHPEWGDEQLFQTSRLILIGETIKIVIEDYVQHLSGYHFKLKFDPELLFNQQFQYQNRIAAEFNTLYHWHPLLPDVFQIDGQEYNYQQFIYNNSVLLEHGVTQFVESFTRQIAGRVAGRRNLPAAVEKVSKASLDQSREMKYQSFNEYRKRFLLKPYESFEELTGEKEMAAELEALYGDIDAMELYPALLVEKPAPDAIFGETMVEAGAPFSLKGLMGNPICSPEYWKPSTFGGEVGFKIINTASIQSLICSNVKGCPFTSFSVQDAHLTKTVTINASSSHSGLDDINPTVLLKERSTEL
Description: (§1) An enzyme immunoassay (EIA) kit from Cayman Chemicals (catalogue number 560101) was used to assess the ability of Platin-A to inhibit ovine COX-1 and COX-2. COX inhibition assay was performed as per the manufacturer protocol. All stock solutions were prepared following manufactures instruction. This inhibition assay was carried out using a two-step process: COX reaction and EIA. COX reaction involved preparation of following samples.
(§2) (i) Background samples: COX-1 and COX-2 were inactivated by transferring 20 μL of each enzyme to an eppendorf tube and placing the tube in boiling water for 3 min. […] (ii) COX-1 or COX-2 100% initial activity samples: 950 μL of reaction buffer, 10 μL of heme, 10 μL of COX-1 or COX-2, and 20 μL of reaction buffer were added to each test tube. (iii) COX-1 or COX-2 inhibitor samples: 950 μL of reaction buffer, 10 μL of heme, 10 μL of COX-1 or COX-2 and 20 μL of COX-1 and COX-2 inhibitors under investigation, aspirin and Platin-A of different concentrations (0.25, 0.5, 0.75, 1, and 1.5 mM for COX-1; 0.75, 1, 1.25, 1.5, and 2 mM for COX-2) were added to each test tube.
(§3) All the samples were incubated for 5 min in water bath at 37° C. […]
(§4) For EIA, 100 μL of EIA buffer was added to non-specific binding well and 50 μL of EIA buffer to maximum binding wells. […] Absorbance was recorded at a wavelength of 410 nm using a plate reader.

ovine COX-1 = target: T2, ovine COX-1 (Ovis aries, UniProt P05979); assay: In vitro COX inhibition assay (EIA), COX-1; format: biochemical; conditions: ovine COX-1, EIA, 0.25-1.5 mM, aspirin as positive control
T2 construct: purchased Cayman Chemicals 560101
T2 sequence (P05979 25-600): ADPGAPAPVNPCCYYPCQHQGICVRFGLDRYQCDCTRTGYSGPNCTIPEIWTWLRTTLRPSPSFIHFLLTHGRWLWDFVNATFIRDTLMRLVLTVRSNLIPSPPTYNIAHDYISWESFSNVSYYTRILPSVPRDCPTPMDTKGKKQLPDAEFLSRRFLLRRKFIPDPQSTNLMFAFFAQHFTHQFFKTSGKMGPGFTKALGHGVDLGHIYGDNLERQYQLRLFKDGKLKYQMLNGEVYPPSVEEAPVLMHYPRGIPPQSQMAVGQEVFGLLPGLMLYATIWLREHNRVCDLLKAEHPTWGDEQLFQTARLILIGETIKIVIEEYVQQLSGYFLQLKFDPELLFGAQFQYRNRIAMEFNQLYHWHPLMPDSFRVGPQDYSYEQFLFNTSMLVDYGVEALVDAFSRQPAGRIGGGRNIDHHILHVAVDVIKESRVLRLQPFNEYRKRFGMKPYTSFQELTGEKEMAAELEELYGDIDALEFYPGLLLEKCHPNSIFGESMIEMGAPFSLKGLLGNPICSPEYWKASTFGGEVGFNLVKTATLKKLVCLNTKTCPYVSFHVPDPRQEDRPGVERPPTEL
Description: as §1, §2, §3, §4

[1] = preventive: pretreatment 10 μM 6 h, then LPS 12 h
[2] = therapeutic: LPS activated macrophages then 10 μM for 12 h

CC(=O)Oc1ccccc1C(=O)[O][Pt]([NH2])([NH2])([OH])([Cl])[Cl] [Platin-A]
LPS-induced TNF-α production (TNF-α; [1]): significantly inhibited | levels of TNF-α (TNF-α; [2]): significantly reduced | LPS-induced IL-6 production (IL-6; [1]): significantly inhibited | levels of IL-6 (IL-6; [2]): significantly reduced | COX-2 inhibition (ovine COX-2): very similar inhibition of both COX-1 and COX-2 as shown by aspirin | COX-1 inhibition (ovine COX-1): very similar inhibition of both COX-1 and COX-2 as shown by aspirin
